# Measurements taken from BindingDB's records for patent US20130102619 (2013).
# Target: T1, Orexin receptor type 2 (Homo sapiens, UniProt O43614)
# T1 sequence (O43614 whole entry): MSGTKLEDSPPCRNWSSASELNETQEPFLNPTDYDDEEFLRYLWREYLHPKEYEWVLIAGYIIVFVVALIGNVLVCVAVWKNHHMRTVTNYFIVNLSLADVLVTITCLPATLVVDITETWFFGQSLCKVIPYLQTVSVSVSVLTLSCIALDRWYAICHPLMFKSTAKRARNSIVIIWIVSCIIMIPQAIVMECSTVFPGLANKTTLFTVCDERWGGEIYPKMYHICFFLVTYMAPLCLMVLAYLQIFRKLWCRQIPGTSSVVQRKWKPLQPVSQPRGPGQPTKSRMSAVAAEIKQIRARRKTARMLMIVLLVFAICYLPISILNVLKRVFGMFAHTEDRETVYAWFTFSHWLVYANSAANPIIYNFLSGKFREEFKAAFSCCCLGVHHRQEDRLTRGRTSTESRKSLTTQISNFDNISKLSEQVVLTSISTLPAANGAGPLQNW
# Assay: FLIPR Ca2+ Flux Assay
# Details: 37 °C
# Protocol: Chinese hamster ovary (CHO) cells expressing the rat orexin-1 receptor or the human orexin-2 receptor, are grown in Iscove's modified DMEM containing 2 mM L-glutamine, […], 1% hypoxanthine-thymidine supplement, 100 U/ml penicillin, 100 ug/ml streptomycin and 10% heat-inactivated fetal calf serum (FCS). The cells are seeded at 20,000 cells/well into Becton-Dickinson black 384-well clear bottom sterile plates coated with poly-D-lysine. All reagents were from GIBCO-Invitrogen Corp. The seeded plates are incubated overnight at 37° C. and 5% CO2. Ala-6,12 human orexin-A as the agonist is prepared as a 1 mM stock solution in 1% bovine serum albumin (BSA) and diluted in assay buffer (HBSS containing 20 mM HEPES, 0.1% BSA and 2.5 mM probenecid, pH7.4) for use in the assay at a final concentration of 70 pM. Test compounds are prepared as 10 mM stock solution in DMSO, then diluted in 384-well plates, first in DMSO, then assay buffer. On the day of the assay, cells are washed 3 times with 100 ul assay buffer and then incubated for 60 min (37° C., 5% CO2) in 60 ul assay buffer containing 1 uM Fluo-4AM ester, 0.02% pluronic acid, and 1% BSA. The dye loading solution is then aspirated and cells are washed 3 times with 100 ul assay buffer. 30 ul of that same buffer is left in each well. Within the Fluorescent Imaging Plate Reader (FLIPR, Molecular Devices), test compounds are added to the plate in a volume of 25 ul, incubated for 5 min and finally 25 ul of agonist is added. Fluorescence is measured for each well at 1 second intervals for 5 minutes and the height of each fluorescence peak is compared to the height of the fluorescence peak induced by 70 pM Ala-6,12 orexin-A with buffer in place of antagonist.
row,SMILES,IC50
1,"C[C@@H]1CC[C@@H](Oc2cc(C#N)ccn2)CN1C(=O)c1ccccc1-n1nccn1 [US20130102619, 1]",12 nM
2,"Cc1nc(-c2ccccc2C(=O)N2C[C@H](Oc3cc(C#N)ccn3)CC[C@H]2C)no1 [US20130102619, 3]",18 nM
3,"C[C@@H]1CC[C@@H](Oc2cc(C#N)ccn2)CN1C(=O)c1ccccc1-c1ncccn1 [US20130102619, 2]",28 nM
